# Laboratory results reported in patent publication US7557215B2, “Anthraquinone compounds as anti cancer compounds” (Somanta Limited, priority 2003, dated 2009).
# Read-outs that look alike come from different tables or passages of the source.
# Key:
# 2780AD = test: Inhibition of cell growth, adriamycin (doxorubicin) resistant 2780AD cell line; format: cell-based, human; conditions: for IC50: read-out: Inhibition of cell growth 2780AD nM (IC50); for RF 2780AD (IC50 in resistant cell line/IC50 in parent cell line): 2780AD vs A2780
# A2780/cp70 = test: Inhibition of cell growth, cisplatin resistant A2780/cp70 cell line; format: cell-based, human; conditions: for RF A2780/cp70 (IC50 in resistant cell line/IC50 in parent cell line): A2780/cp70 vs A2780
# A2780 = test: Inhibition of cell growth, A2780 wild type ovarian carcinoma cell line
# [1] = system: cisplatin resistant variant (A2780/cp70) xenograft; test: Tumour doubling time, cisplatin resistant variant xenograft A2780/cp70 in mice; format: in vivo; conditions: 16 mg/kg i.p.
# From the text: (§1) Compound HAQ71, with the lowest RF (0.2) of the panel of compounds tested against the cisplatin resistant cells and its chloropropyl-substituted analogue, was selected for in vivo investigation in mice using tumour A2780 and A2780/cp70 cells grown as xenografts in mice. Significant anticancer activity in vivo of HAQ71 and CAQ75 was shown; both compounds exerting similar tumour growth delay in human xenografted wild-type and acquired cisplatin resistant tumours (A2780/cp70). The latter is very refractory to cisplatin and other covalent binding agents and has been characterised with elevated levels of glutathione, alterations in drug uptake/efflux and DNA repair mechanisms including mismatch repair deficiency.
# [2] = system: human ovarian tumour xenograft (A2780); test: Tumour doubling time, human ovarian tumour xenograft A2780 in mice; format: in vivo; conditions: 16 mg/kg i.p.
# From the text: as §1
# [3] = A2780/cp70 cisplatin resistant, read-out: Inhibition of cell growth A2780/cp70 nM (IC50)
# [4] = Homo sapiens, A2780, read-out: Inhibition of cell growth A2780 nM (IC50)
# [5] = Homo sapiens, A2780/CP70, read-out: Inhibition of cell growth A2780/cp70 nM (IC50)
# [6] = read-out: Growth Inhibition (IC50) A2780, A2780, Table 4
# [7] = read-out: Inhibition of cell growth (IC50, nM) A2780, A2780, Table 1
smiles,measurement,setting,value
"CN(C)CCNc1ccc(NCCN2CCC(Cl)CC2)c2c1C(=O)c1c(O)ccc(O)c1C2=O [CAQ172, 1-{[2-(4-Chloropiperidin-1-yl)ethyl]amino}-4-{[(2-dimethylamino)ethyl]amino}-5,8-dihydroxyanthracene-9,10-dione]",IC50,2780AD; 2780AD adriamycin resistant,426 nM
same,RF 2780AD (IC50 in resistant cell line/IC50 in parent cell line),2780AD,0.7
same,IC50,A2780/cp70; [3],535 nM
same,RF A2780/cp70 (IC50 in resistant cell line/IC50 in parent cell line),A2780/cp70,0.9
"O=C1c2c(O)ccc(O)c2C(=O)c2c(NCCN3CCCC(CCl)C3)ccc(NCCN3CCCC(CCl)C3)c21 (stereo not drawn) [CAQ74, 1,4-Bis-{[2-(3-chloromethylpiperidin-1-yl)ethyl]amino}-5,8-dihydroxyanthracene-9,10-dione]",IC50,A2780; [4],> 1000 nM
same,IC50,"2780AD; Homo sapiens, 2780AD",> 1000 nM
same,IC50,A2780/cp70; [5],> 1000 nM
"O=C1c2c(O)ccc(O)c2C(=O)c2c(NCCN3CCC(O)CC3)ccc(NCCN3CCC(O)CC3)c21 [HAQ116, 1,4-Bis-{[2-(4-hydroxypiperidin-1-yl)ethyl]amino}-5,8-dihydroxy-anthracene-9,10-dione]",melting point,,241 to 244 °C
"O=C1c2c(O)ccc(O)c2C(=O)c2c(NCCN3CCCC(CO)C3)ccc(NCCN3CCCC(CO)C3)c21 (stereo not drawn) [HAQ70, 1,4-Bis-{[2-(3-hydroxymethylpiperidine-1-yl)ethyl]amino}-5,8-dihydroxyanthracene-9,10-dione]",melting point,,180 to 183 °C
"CN(C)CCNc1ccc(NCCN2CCCC2CO)c2c1C(=O)c1c(O)ccc(O)c1C2=O (stereo not drawn) [HAQ110, 1-{[(2-Dimethylamino)ethyl]amino}-4-{[2-(2-hydroxymethylpyrrolidin-1-yl)ethyl]-amino}-5,8-dihydroxy-anthracene-9,10-dione]",IC50,A2780; [6],69 nM
"O=C1c2c(O)ccc(O)c2C(=O)c2c(NCCN3CCCC3CO)ccc(NCCN3CCCC3CO)c21 (stereo not drawn) [HAQ125, 1,4-Bis-{[2-(2-hydroxymethylpyrrolidin-1-yl)ethyl]amino}-5,8-dihydroxy-anthracene-9,10-dione]",melting point,,202 to 204 °C
"CN(C)CCNc1ccc(NCCN2CCCCC2CCl)c2c1C(=O)c1c(O)ccc(O)c1C2=O (stereo not drawn) [CAQ183M, 1-{[2-(2-Chloromethylpiperidin-1-yl)ethyl]-amino}-4-{[(2-dimethylamino)ethyl]amino}-5,8-dihydroxyanthracene-9,10-dione]",IC50,2780AD; 2780AD adriamycin resistant,91 nM
same,RF 2780AD (IC50 in resistant cell line/IC50 in parent cell line),2780AD,2.3
same,IC50,A2780/cp70; [3],69 nM
same,RF A2780/cp70 (IC50 in resistant cell line/IC50 in parent cell line),A2780/cp70,1.7
"CN(C)CCNc1ccc(NCCN2CCCC(Cl)C2)c2c1C(=O)c1c(O)ccc(O)c1C2=O (stereo not drawn) [CAQ166M, 1-{[2-(3-Chloropiperidin-1-yl)ethyl]amino}-4-{[(2-dimethylamino)ethyl]amino}-5,8-dihydroxyanthracene-9,10-dione]",IC50,2780AD; 2780AD adriamycin resistant,75 nM
same,RF 2780AD (IC50 in resistant cell line/IC50 in parent cell line),2780AD,8.3
same,IC50,A2780/cp70; [3],63 nM
same,RF A2780/cp70 (IC50 in resistant cell line/IC50 in parent cell line),A2780/cp70,7
"CN(C)CCNc1ccc(NCCN2CCCC(O)C2)c2c1C(=O)c1c(O)ccc(O)c1C2=O (stereo not drawn) [HAQ73, 1-[(2-Dimethylamino)ethylamino]-4-[2-(3-hydroxypiperidon-1-yl)ethylamino]-5,8-dihydroxy-anthracene-9,10-dione]",IC50,A2780; [7],10.8 nM
"O=C1c2c(O)ccc(O)c2C(=O)c2c(NCCN3CCCCC3CCl)ccc(NCCN3CCCCC3CCl)c21 (stereo not drawn) [CAQ190M, 1,4-Bis-{[2-(2-chloromethylpiperidin-1-yl)ethyl]amino}-5,8-dihydroxyanthracene-9,10-dione]",IC50,A2780; [4],178 nM
same,IC50,"2780AD; Homo sapiens, 2780AD",> 1000 nM
same,IC50,A2780/cp70; [5],> 1000 nM
"CN(C)CCNc1ccc(NCCN2CCCCC2CCl)c2c1C(=O)c1c(O)ccc(O)c1C2=O (stereo not drawn) [CAQ75, 1-{[2-(2-Chloromethylpiperidin-1-yl)ethyl]amino}-4-{[(2-dimethylamino)ethyl]amino}-5,8-dihydroxyanthracene-9,10-dione]",doubling time (days) of tumour xenograft,[1],4.18 ± 0.27 days
same,tumour growth delay (%),[1],166%
same,fold decrease in cytotoxicity on substitution of OH with Cl (HAQ71 vs CAQ75),A2780; CAQ75 compared with HAQ71,> 10 fold
same,doubling time (days) of tumour xenograft,[2],5.83 ± 0.40 days
same,"tumour doubling time, percent",[2],198%
same,RF against the cisplatin resistant cells,"A2780/cp70; text b280, b283",0.4
"CN(C)CCNc1ccc(NCCN2CCCC2CCl)c2c1C(=O)c1c(O)ccc(O)c1C2=O (stereo not drawn) [CAQ176M, 1-{[2-(2-Chloromethylpyrrolidin-1-yl)ethyl]-amino}-4-{[(2-Dimethylamino)ethyl]amino}-5,8-dihydroxyanthracene-9,10-dione]",IC50,2780AD; 2780AD adriamycin resistant,292 nM
same,RF 2780AD (IC50 in resistant cell line/IC50 in parent cell line),2780AD,10.1
same,IC50,A2780/cp70; [3],79 nM
same,RF A2780/cp70 (IC50 in resistant cell line/IC50 in parent cell line),A2780/cp70,2.7
"O=C1c2ccccc2C(=O)c2c(NCCN3CCCC(CO)C3)ccc(NCCN3CCCC(CO)C3)c21 (stereo not drawn) [HAQ38, 1,4-Bis-{[2-(3-hydroxymethylpiperidine-1-yl)ethyl]amino}-anthracene-9,10-dione]",melting point,,112 to 114 °C
"CN(C)CCNc1ccc(NCCN2CCCCC2)c2c1C(=O)c1c(O)ccc(O)c1C2=O [HAQ148, 1-{[(2-Dimethylamino)ethyl]amino}-4-{[2-(piperidin-1-yl)ethyl]amino}-5,8-dihydroxyanthracene-9,10-dione, reference compound]",IC50,A2780; [7],> 1000 nM
same,IC50,"A2780; read-out: Inhibition of cell growth A2780 nM (IC50), A2780 wild type, Table 2",> 1000 nM
same,IC50,2780AD; 2780AD adriamycin resistant,> 1000 nM
same,IC50,A2780/cp70; [3],> 1000 nM
"O=C1c2c(O)ccc(O)c2C(=O)c2c(NCCN3CCC(O)C3)ccc(NCCN3CCC(O)C3)c21 (stereo not drawn) [HAQ115, 1,4-Bis-{[2-(3-hydroxypyrrolidin-1-yl)ethyl]amino}-5,8-dihydroxy-anthracene-9,10-dione]",melting point,,197 to 199 °C
"O=C1c2c(O)ccc(O)c2C(=O)c2c(NCCN3CCCC3CCl)ccc(NCCN3CCCC3CCl)c21 (stereo not drawn) [CAQ177M, 1,4-Bis-{[2-(2-chloromethylpyrrolidin-1-yl)ethyl]amino}-5,8-dihydroxyanthracene-9,10-dione]",IC50,A2780; [4],428 nM
same,RF 2780AD (IC50 in resistant cell line/IC50 in parent cell line),2780AD,1.8
same,IC50,"2780AD; Homo sapiens, 2780AD",782 nM
same,RF A2780/cp70 (IC50 in resistant cell line/IC50 in parent cell line),A2780/cp70,1
same,IC50,A2780/cp70; [5],442 nM
"O=C1c2ccccc2C(=O)c2c(NCCN3CCCC3CO)cccc21 (stereo not drawn) [HAQ163, 1-{[2-(2-Hydroxymethylpyrrolidin-1-yl)ethyl]amino}-anthracene-9,10-dione]",IC50,A2780; read-out: Inhibition of cell growth A2780 nM (IC50),> 1000 nM
same,melting point,,113 to 115 °C
same,IC50,"2780AD; Homo sapiens, 2780AD adriamycin resistant",> 1000 nM
same,IC50,"A2780/cp70; Homo sapiens, A2780/cp70 cisplatin resistant, read-out: Inhibition of cell growth A2780/cp70 nM (IC50)",> 1000 nM
"CN(C)CCNc1ccc(NCCN2C(CCl)CCCC2CCl)c2c1C(=O)c1c(O)ccc(O)c1C2=O (stereo not drawn) [CAQ187M, 1-{[2-(2,6-Dichloromethylpiperidin-1-yl)ethyl]-amino}-4-{[(2-dimethylamino)ethyl]amino}-5,8-dihydroxyanthracene-9,10-dione]",IC50,2780AD; 2780AD adriamycin resistant,106 nM
same,RF 2780AD (IC50 in resistant cell line/IC50 in parent cell line),2780AD,4.4
same,IC50,A2780/cp70; [3],357 nM
same,RF A2780/cp70 (IC50 in resistant cell line/IC50 in parent cell line),A2780/cp70,14.9
"O=C1c2c(O)ccc(O)c2C(=O)c2c(NCCN3CCCCC3CO)ccc(NCCN3CCCCC3CO)c21 (stereo not drawn) [HAQ105, 1,4-Bis-{[2-(2-hydroxymethylpiperidine-1-yl)ethyl]amino}-5,8-dihydroxy-anthracene-9,10-dione]",melting point,,208 to 210 °C
"O=C1c2ccccc2C(=O)c2c(NCCN3CCCC3CCl)cccc21 (stereo not drawn) [CAQ191M, 1-{[2-(2-chloromethylpyrrolidin-1-yl)ethyl]amino}-anthracene-9,10-dione]",IC50,A2780; [4],> 1000 nM
same,melting point,,250 to 253 °C
same,IC50,"2780AD; Homo sapiens, 2780AD",> 1000 nM
same,IC50,A2780/cp70; [5],> 1000 nM
"CN(C)CCNc1ccc(NCCN2CCC(O)CC2)c2c1C(=O)c1c(O)ccc(O)c1C2=O [HAQ111, 1-{[(2-Dimethylamino)ethyl]amino}-4-{[2-(4-hydroxypiperidin-1-yl)ethyl]amino}-5,8-dihydroxy-anthracene-9,10-dione]",IC50,A2780; [7],6.1 nM
"O=C1c2c(O)ccc(O)c2C(=O)c2c(NCCN3CCCCC3)ccc(NCCN3CCCCC3)c21 [HAQ145, 1,4-Bis-{[2-(piperidin-1-yl)ethyl]amino}-5,8-dihydroxy-anthracene-9,10-dione]",melting point,,219 to 221 °C
"CN(C)CCNc1ccc(NCCN2CCC(Cl)C2)c2c1C(=O)c1c(O)ccc(O)c1C2=O (stereo not drawn) [CAQ188M, 1-{[2-(3-Chloropyrrolidin-1-yl)ethyl]amino}-4-{[(2-dimethylamino)ethyl]amino}-5,8-dihydroxyanthracene-9,10-dione]",IC50,2780AD; 2780AD adriamycin resistant,342 nM
same,RF 2780AD (IC50 in resistant cell line/IC50 in parent cell line),2780AD,5.0
same,IC50,A2780/cp70; [3],96 nM
same,RF A2780/cp70 (IC50 in resistant cell line/IC50 in parent cell line),A2780/cp70,1.4
"C[N+](C)([O-])CCNc1ccc(NCC[N+]2([O-])CCCC2CO)c2c1C(=O)c1c(O)ccc(O)c1C2=O (stereo not drawn) [HAQ132N, 1-{[2-(2-Hydroxymethylpyrrolidin-1-yl-N-oxide)ethyl]amino}-4-{[(2-dimethylamino-N-oxide)ethyl]amino}-5,8-dihydroxy-anthracene-9,10-dione]",IC50,A2780; [6],> 100000 nM
same,IC50,"A2780; read-out: IC50 of di-N-oxides (order of cytotoxicity), text b286",> 100000 nM
same,cytotoxicity ratio (CR=IC50 of alkylaminoanthraquinone-di-N-oxide/IC50 alkylaminoanthraquinone),A2780; text b286,"1,450"
